Experiment: Water solubility
Conditions: lisuride or a salt thereof

With `CCN(CC)C(=O)N[C@H]1C=C2c3cccc4[nH]cc(c34)C[C@H]2N(C)C1` [lisuride, 3-(9,10-didehydro-6-methyl-8α-ergolinyl)-1,1-diethyl urea] the water solubility was “good water solubility”.

Reference: patent US20040219191A1, “Use of a dopamine agonist with a short half-life for treating illnesses which can be treated by dopaminergic means” (priority 2000, published 2004)
